Measured values published in publication PMC8280112, “Substrate reduction therapy for Krabbe disease and metachromatic leukodystrophy using a novel ceramide galactosyltransferase inhibitor” (Scientific Reports, 2021).

Test system: wild-type mice
Assay: PND15 wild-type mice tolerability study: blood chemistry and hematology
Format: in vivo, mouse
Details: PND15-PND70, Avg
Procedure: Maximum obtainable terminal blood collection was taken via cardiac puncture and split. 200 µL into clot-activating tubes for serum processing and the following chemistry panel: AST, ALT, CKMB and electrolytes. 220 µL stored on wet ice and used for CBC.
Animals were euthanized with CO2 followed by cardiac puncture. Blood was collected via cardiac puncture and split for blood chemistry and hematology.

[1] = 2.3 mg/kg IP three times per week
[2] = 5.4 mg/kg IP three times per week

C[C@H]1N(c2ccc(Br)cc2)C(=O)N(c2ccc(Br)cc2)C1(O)c1cccc(OC(F)(F)F)c1 (stereo partly shown) [S202]
#BASO [1]: 0.02 10^3cells/µL | #EOS [1]: 0.14 10^3cells/µL | #LUC [1]: 0.11 10^3cells/µL | #LYMPH [1]: 4.3 10^3cells/µL | #MONO [1]: 0.12 10^3cells/µL | #NEUT [1]: 0.8 10^3cells/µL | #RETIC [1]: 291 10^9cells/L | %BASO [1]: 0.4% | %EOS [1]: 2.4% | %LUC [1]: 2% | %LYMPH [1]: 78.8% | %MONO [1]: 2.3% | %NEUT [1]: 14.3% | %RETIC [1]: 2.9% | ALT [1]: 257.2 IU/L | AST [1]: 283.5 IU/L | CH [1]: 13.3 pg | CHCM [1]: 27.5 g/dL | CHR [1]: 14.6 pg | CHm [1]: 14 pg | CKMB [1]: 250.5 U/L | CL [1]: 109.4 mmol/L | HCT [1]: 47.9% | HDW [1]: 1.9 g/dL | HGB [1]: 15.3 g/dL | HGBCell [1]: 13.2 g/dL | K [1]: 10.5 mmol/L | MCH [1]: 15.4 pg | MCHC [1]: 31.9 g/dL | MCV [1]: 48.2 fL | MPM [1]: 1.3 pg | MPV [1]: 5.4 fL | NA [1]: 148 mmol/L | PDW [1]: 37.1% | PLT [1]: 1.02e+06 µL⁻¹ | RBC [1]: 9.9e+06 µL⁻¹ | RDW [1]: 12.2% | WBC [1]: 5500 µL⁻¹ | #BASO [2]: 0.013 10^3cells/µL | #EOS [2]: 0.4 10^3cells/µL | #LUC [2]: 0.047 10^3cells/µL | #LYMPH [2]: 3.8 10^3cells/µL | #MONO [2]: 0.08 10^3cells/µL | #NEUT [2]: 0.55 10^3cells/µL | #RETIC [2]: 285 10^9cells/L | %BASO [2]: 0.35% | %EOS [2]: 8.2% | %LUC [2]: 0.9% | %LYMPH [2]: 77.6% | %MONO [2]: 1.6% | %NEUT [2]: 11.4% | %RETIC [2]: 2.7% | ALT [2]: 99.5 IU/L | AST [2]: 132.8 IU/L | CH [2]: 13.1 pg | CHCM [2]: 27.3 g/dL | CHR [2]: 14.6 pg | CHm [2]: 13.8 pg | CKMB [2]: 126.4 U/L | CL [2]: 111.3 mmol/L | HCT [2]: 50.1% | HDW [2]: 1.93 g/dL | HGB [2]: 15.9 g/dL | HGBCell [2]: 13.7 g/dL | K [2]: 9.6 mmol/L | MCH [2]: 15.3 pg | MCHC [2]: 31.8 g/dL | MCV [2]: 48.1 fL | MPM [2]: 1.3 pg | MPV [2]: 5.82 fL | NA [2]: 150.9 mmol/L | PDW [2]: 46.63% | PLT [2]: 737200 µL⁻¹ | RBC [2]: 1.04e+07 µL⁻¹ | RDW [2]: 11.8% | WBC [2]: 4900 µL⁻¹
